Publication PMC6705210, “Inhibition of HTLV-1 Infection by HIV-1 First- and Second-Generation Integrase Strand Transfer Inhibitors” (Frontiers in Microbiology, 2019)
Read-outs that look alike come from different tables or passages of the source.

Tests used:
HTLV-1 integrase = target: T1, HTLV-1 integrase (Human T-cell leukemia virus 1, UniProt P03362); experiment: In vitro HTLV-1 integrase strand transfer assay (concerted integration, agarose gel densitometry); format: biochemical; settings: for Inhibition of enzymatic activity Hill slope: dose-response fit of strand transfer inhibition
T1 construct: Full-length wild type HTLV-1 IN was recombinantly expressed, purified, and characterized; SUMO (pET28a-SUMO fusion) (N); made in house
T1 sequence (P03362 1168-1462): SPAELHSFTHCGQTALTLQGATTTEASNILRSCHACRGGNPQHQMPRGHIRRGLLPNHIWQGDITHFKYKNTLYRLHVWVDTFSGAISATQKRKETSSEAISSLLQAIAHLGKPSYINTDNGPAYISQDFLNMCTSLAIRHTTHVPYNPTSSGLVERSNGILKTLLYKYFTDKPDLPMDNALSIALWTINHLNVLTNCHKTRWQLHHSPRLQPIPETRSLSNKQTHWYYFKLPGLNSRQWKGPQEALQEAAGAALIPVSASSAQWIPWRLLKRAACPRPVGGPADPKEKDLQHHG
Description: Donor DNA mimicking the U5 3′-processed LTR ends of the viral DNA copy was prepared by annealing oligonucleotides (Supplementary Table S1), in 100 mM Tris pH 7.4, 400 mM NaCl. The optimized conditions for the strand transfer reactions are as follows: a solution was prepared containing 73 mM PIPES pH 6.0, 175 mM NaCl, 16.7 mM MgCl2, 5.8 μM ZnCl2, 12.8 mM DTT, 0.53 μM donor DNA, and 0.8 μM HTLV-1 integrase. Following a 30 min room temperature incubation in the presence or absence of INSTIs in the final concentration of 5% DMSO, the reaction was initiated by addition of 300 ng of pGEM-9Zf(−) supercoiled plasmid DNA. The total volume of each reaction was 150 μL. Reactions were carried out at 37°C for 30 min and were processed as described previously ([Maertens et al., 2010]). All reactions were performed in these conditions unless otherwise stated in the Figure legend. Reactions that included B′γ were done with equimolar ratio of IN to B′γ. The precipitated DNA was resuspended in agarose loading dye and analyzed on a 1.5% agarose gel run in 1× TAE buffer and stained with ethidium bromide. Bands corresponding to products of concerted integration were quantified by densitometry in ImageLab 4.1 (Bio-Rad). All experiments were done in triplicate.
Quantified data points were fitted to a dose-response curve in Prism 7. Cumulative standard deviation for each drug was calculated as an average of the upper limit and lower limit values: […]

HTLV-1 [1] = experiment: HTLV-1 infection of Jurkat cells by cell-to-cell transmission (co-culture with irradiated MT-2), proviral load by qPCR; format: cell-based, Human T-cell lymphotropic virus type 1; settings: for EC50: read-out: Antiviral activity EC50 (HTLV-1)
Description: (§1) Jurkat cells were pre-treated with increasing amounts of INSTI (0.2 pM–2 μM in DMSO), or the carrier (DMSO) for 24 h. MT-2 cells were resuspended to a concentration of 2 × 10^6 cells/mL and exposed to a sub-lethal dose of gamma-irradiation (40,000 Rad). Cells were resuspended in serum-free RPMI to a concentration of 2 × 10^6 cells/mL in the presence of drug, and 0.5 × 10^6 of each cell type were co-cultured for 18 h. Following co-culture, cells were washed in PBS and resuspended in 1 mL of depletion buffer (0.1% FBS, 2 mM EGTA, PBS) before gentle tumbling (1 h, 4°C) with 25 μL of anti-CD25 + magnetic beads (DynaBeads, Thermo Fisher Scientific) to deplete MT-2 cells. Following depletion, the unbound fraction, i.e., Jurkat cells were maintained in RPMI with the drug present for 16 days before genomic DNA harvest (DNeasy kit, Qiagen). All experiments were done in triplicate. Depletion of MT-2 cells was verified by FACS. For cellular toxicity measurements, Jurkat cells were grown in the presence of the INSTIs as described above. Viability was measured by live dead stain (Hoechst 33258) and analyzed by FACS.
Proviral load (PVL) was estimated as previously described ([Manivannan et al., 2016]; [Rowan et al., 2016]). Genomic DNA concentrations were measured by nanospectroscopy (DeNovix), and samples were diluted to 5 ng/μL for real-time PCR (qPCR) analysis. qPCR reactions were performed for both the HTLV-1 tax gene and the human GAPDH gene (Supplementary Table S2). Gene copy numbers were determined by comparison to standard curves generated from a clone with a known single integration site (clone 11.50, courtesy of Prof. Charles Bangham). PVL was calculated by comparison of tax and GAPDH copy numbers as a fraction, multiplied by 100 to generate a percentile value assuming a single copy of tax and two copies of GAPDH per infected cell ([Lairmore et al., 1989]). Alu-PCR was performed as described previously ([Alais et al., 2015]), with the modification that the nested PCR was also run as a qPCR using SYBR-green (primers used are shown in Supplementary Table S2). Integrated provirus copy numbers were normalized to GAPDH, and DMSO treated HTLV-1 infected Jurkat cells were arbitrarily set to 100%. Averages and standard deviations of three independent experiments are shown. P-values were calculated using the student’s t-test.

[2] = Cellular toxicity in Jurkat cells (live dead stain Hoechst 33258, FACS); format: cell-based; settings: human
Description: as §1, with “MT-2” for “Jurkat cells were pre-treated with increasing amounts of INSTI (0.2 pM–2 μM in DMSO), or the carrier (DMSO) for 24 h. MT-2”

HIV-1 = settings: read-out: HIV-1 antiviral activity EC50, cited from earlier work
HTLV-1 [3] = test system: HTLV-1; design: method as in Pasquier et al., 2018; settings: ref Pasquier et al., 2018, cited from earlier work
[4] = HTLV-1 IN 0.8 μM, concerted integration product
[5] = Jurkat cells co-cultured with irradiated MT-2, PVL 16 days post-infection
[6] = Primate T-lymphotropic virus 1, Jurkat, light or radiation study, 384 h, Jurkat cells co-cultured with irradiated MT-2, PVL 16 days post-infection
[7] = HTLV-1 IN 0.8 μM, concerted integration product, triplicate, read-out: Inhibition of enzymatic activity IC50

Structure (SMILES) | Inhibition of enzymatic activity IC95 (HTLV-1 integrase; [4]) | Inhibition of enzymatic activity Hill slope (HTLV-1 integrase) | Antiviral activity EC95 (HTLV-1) (HTLV-1 [1]; [5]) | IC50 (HTLV-1 integrase; [7]) | EC50 (HIV-1; ref a) | other results
COc1cc2c(cc1Cc1cccc(Cl)c1F)c(=O)c(C(=O)O)cn2[C@H](CO)C(C)C [Elvitegravir, elvitegravir] | 1900 ± 304 nM | 1.0 | 1270 ± 735 nM | – | – | IC50 (HTLV-1 integrase): 100 ± 16 nM; EC50 (HTLV-1 [1]; [6]): 9.57 ± 5.54 nM; CC50 [2]: > 20000 nM
Cn1c(N2CCCCS2(=O)=O)nc(C(=O)NCc2ccc(F)cc2)c(O)c1=O [BMS-707035] | 12200 ± 2900 nM | 0.83 | – | 350 ± 74 nM | – | EC50 (HIV-1; ref c): 2.5 nM
Cc1nnc(C(=O)NC(C)(C)c2nc(C(=O)NCc3ccc(F)cc3)c(O)c(=O)n2C)o1 [Raltegravir, raltegravir] | 29920 ± 5750 nM | 0.73 | 1020 ± 675 nM | – | 9.4 ± 1.4 nM | IC50 (HTLV-1 integrase): 530 ± 102 nM; EC50 (HTLV-1 [1]; Primate T-lymphotropic virus 1, Jurkat, light or radiation study, 384 h): 6.42 ± 4.24 nM; CC50 ([2]; Jurkat cells, read-out: CC50): > 20000 nM
Cc1cn([C@H]2C[C@H](N=[N+]=[N-])[C@@H](CO)O2)c(=O)[nH]c1=O [zidovudine] | – | – | – | – | – | inhibition of HTLV-1 infection (HTLV-1 [3]; at 50 μM concentration): 10–20%
O=C(NCc1c(F)cc(F)cc1F)c1cn2c(c(O)c1=O)C(=O)N1[C@H]3CC[C@H](C3)O[C@@H]1C2 [Bictegravir, bictegravir] | 2090 ± 437 nM | 1.2 | 31.8 ± 18.2 nM | 180 ± 29 nM | 1.6 ± 0.4 nM | activity relative to elvitegravir (HTLV-1 integrase; in vitro assays, versus elvitegravir): ~55%; fold higher activity than raltegravir or elvitegravir, respectively (HTLV-1 [1]; HTLV-1 cell-to-cell infection model, versus raltegravir or elvitegravir): 20–30 fold; EC50 (HTLV-1 [1]; [5]): 0.302 ± 0.173 nM; EC50 (HTLV-1 [1]; [6]): 0.3 ± 0.17 nM; more potent than TDF in blocking HTLV-1 infection (HTLV-1 [1]; versus TDF): ~60; CC50 [2]: > 20000 nM
C[C@@H]1CCO[C@H]2Cn3cc(C(=O)NCc4ccc(F)cc4F)c(=O)c(O)c3C(=O)N12 [Dolutegravir, dolutegravir] | 3020 ± 485 nM | 1.2 | – | 260 ± 59 nM | 1.4 ± 0.3 nM | –
CC(C)OC(=O)OCOP(=O)(CO[C@H](C)Cn1cnc2c(N)ncnc21)OCOC(=O)OC(C)C.O=C(O)/C=C/C(=O)O [TDF, tenofovir disproxil fumarate] | – | – | – | – | – | EC50 (HTLV-1 [1]; [5]): 17.8 ± 7.16 nM; HTLV-1 infection blocked (HTLV-1 [3]; at concentrations of 10 μM): about 50%
